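Cultured in 96-well plates, cells were exposed to test compound for 48 hours across five concentrations. At the GI50, growth is halved.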 The source made the active and inactive calls. Rule as the data show it: active = GI50 up to about 1.1 µM and inactive = higher.
Experiments:
Assay in all cases: DTP human tumour cell line panel, 48 h
ACHN = tested on: ACHN
UO-31 = tested on: UO-31
SR = tested on: SR
HT-29 = tested on: HT-29
PC-3 = tested on: PC-3
CCRF-CEM = tested on: CCRF-CEM
MOLT-4 = tested on: MOLT-4
SK-MEL-2 = tested on: SK-MEL-2
IGROV-1 = tested on: IGROV-1
SK-OV-3 = tested on: SK-OV-3
SW-620 = tested on: SW-620
M14 = tested on: M14
RPMI-8226 = tested on: RPMI-8226
OVCAR-8 = tested on: OVCAR-8
KM12 = tested on: KM12
Malme-3M = tested on: Malme-3M
TK-10 = tested on: TK-10
786-0 = tested on: 786-0
RXF 393 = tested on: RXF 393
NCI-H460 = tested on: NCI-H460

Measured: GI50

CSc1n[n+](C)cc(N)c1N
inactive: ACHN > 100 µM | UO-31 88.9 µM | SR > 100 µM | HT-29 > 100 µM | PC-3 > 100 µM | CCRF-CEM > 100 µM | MOLT-4 > 100 µM | SK-MEL-2 > 100 µM | IGROV-1 > 100 µM | SK-OV-3 > 100 µM | SW-620 > 100 µM | M14 > 100 µM | RPMI-8226 > 100 µM | OVCAR-8 > 100 µM | KM12 > 100 µM | Malme-3M 36.1 µM | TK-10 > 100 µM | 786-0 > 100 µM

NCCN1C(=O)c2ccccc2C1c1ccc(Cl)cc1 (stereo not drawn)
inactive: ACHN > 100 µM | RXF 393 > 100 µM | UO-31 > 100 µM | SR > 100 µM | NCI-H460 > 100 µM | HT-29 > 100 µM | PC-3 92.3 µM | CCRF-CEM > 100 µM | MOLT-4 > 100 µM | SK-MEL-2 > 100 µM | IGROV-1 > 100 µM | SK-OV-3 > 100 µM | SW-620 > 100 µM | M14 > 100 µM | RPMI-8226 > 100 µM | OVCAR-8 > 100 µM | KM12 > 100 µM | TK-10 > 100 µM | 786-0 > 100 µM

N#CCCN(CCNc1ccccc1)C(=O)Nc1ccc(NC(=O)N(CCC#N)CCNc2ccccc2)cc1
inactive: ACHN > 100 µM | RXF 393 > 45.3 µM | UO-31 > 100 µM | NCI-H460 > 67.6 µM | HT-29 > 100 µM | PC-3 > 93.1 µM | MOLT-4 > 100 µM | SK-MEL-2 > 100 µM | SK-OV-3 > 65.6 µM | SW-620 > 100 µM | M14 > 100 µM | RPMI-8226 > 100 µM | OVCAR-8 > 73.8 µM | KM12 > 96.6 µM | Malme-3M > 100 µM | TK-10 > 61.4 µM | 786-0 > 68.9 µM

Cc1ccc(/N=N/c2c(O)ccc3cc(S(=O)(=O)O)ccc23)cc1
inactive: ACHN > 100 µM | RXF 393 > 100 µM | UO-31 > 100 µM | HT-29 > 100 µM | PC-3 > 100 µM | CCRF-CEM > 100 µM | MOLT-4 > 100 µM | SK-MEL-2 > 100 µM | IGROV-1 64.3 µM | SK-OV-3 > 100 µM | SW-620 > 100 µM | M14 > 100 µM | RPMI-8226 > 100 µM | OVCAR-8 > 100 µM | KM12 74.6 µM | Malme-3M > 100 µM | TK-10 > 100 µM | 786-0 12.6 µM

CC(=O)C1(c2ccccc2)CCCN(C)CC1 (stereo not drawn)
inactive: UO-31 > 100 µM | SR > 100 µM | NCI-H460 > 100 µM | HT-29 > 100 µM | PC-3 > 100 µM | CCRF-CEM > 100 µM | MOLT-4 > 100 µM | SK-MEL-2 > 100 µM | IGROV-1 > 100 µM | SK-OV-3 > 100 µM | SW-620 > 100 µM | M14 > 100 µM | RPMI-8226 > 100 µM | OVCAR-8 > 100 µM | KM12 > 100 µM | Malme-3M > 100 µM | TK-10 > 100 µM

COP(=O)(OC)/C(=C\C1=CN(C(c2ccccc2)(c2ccccc2)c2ccccc2)CN1)NC=O
inactive: ACHN 15.1 µM | UO-31 15 µM | SR 14.2 µM | NCI-H460 14 µM | HT-29 15 µM | PC-3 6.44 µM | MOLT-4 12.8 µM | SK-MEL-2 15.9 µM | IGROV-1 20.6 µM | SK-OV-3 15.9 µM | SW-620 20.4 µM | M14 19.9 µM | RPMI-8226 15.7 µM | OVCAR-8 21.3 µM | TK-10 21.2 µM

N#Cc1c(N)nc(Sc2ccccc2N)c(C#N)c1-c1ccccc1
inactive: ACHN 19.9 µM | UO-31 11.4 µM | SR 21 µM | NCI-H460 14.8 µM | HT-29 24.5 µM | PC-3 9.64 µM | MOLT-4 11.6 µM | SK-MEL-2 10.9 µM | IGROV-1 16.9 µM | SW-620 30.9 µM | M14 24.2 µM | RPMI-8226 12.7 µM | OVCAR-8 20.2 µM | KM12 17.8 µM | Malme-3M 16.9 µM | TK-10 11.5 µM | 786-0 13.5 µM

Cc1cc(O)c(C(C)C)cc1C(=S)Nc1ccc(Cl)cc1
inactive: ACHN 13 µM | SR 4.95 µM | NCI-H460 11.1 µM | HT-29 14.8 µM | PC-3 11 µM | CCRF-CEM 3.66 µM | MOLT-4 3.4 µM | SK-MEL-2 14.1 µM | IGROV-1 3.32 µM | SK-OV-3 21.9 µM | SW-620 14.3 µM | RPMI-8226 8.3 µM | OVCAR-8 10.6 µM | KM12 10.1 µM | Malme-3M 7.52 µM | 786-0 14.1 µM

COP(=O)(O)C(N)Cc1c[nH]c2ccccc12 (stereo not drawn)
inactive: ACHN > 100 µM | UO-31 > 100 µM | SR > 100 µM | NCI-H460 > 100 µM | HT-29 > 100 µM | PC-3 > 100 µM | CCRF-CEM > 100 µM | MOLT-4 > 100 µM | SK-MEL-2 > 100 µM | IGROV-1 > 100 µM | SK-OV-3 > 100 µM | SW-620 > 100 µM | M14 > 100 µM | RPMI-8226 > 100 µM | OVCAR-8 > 100 µM | TK-10 > 100 µM

— ChEMBL document CHEMBL1201862, “PubChem BioAssay data set” (2004)
